In ChEMBL document CHEMBL5291721, “A preclinical secondary pharmacology resource illuminates target-adverse drug reaction associations of marketed drugs” (Nat Commun, 2023):

Molecular target: T1, Muscarinic acetylcholine receptor M2 (Homo sapiens, UniProt P08172)
T1 sequence (P08172 whole entry): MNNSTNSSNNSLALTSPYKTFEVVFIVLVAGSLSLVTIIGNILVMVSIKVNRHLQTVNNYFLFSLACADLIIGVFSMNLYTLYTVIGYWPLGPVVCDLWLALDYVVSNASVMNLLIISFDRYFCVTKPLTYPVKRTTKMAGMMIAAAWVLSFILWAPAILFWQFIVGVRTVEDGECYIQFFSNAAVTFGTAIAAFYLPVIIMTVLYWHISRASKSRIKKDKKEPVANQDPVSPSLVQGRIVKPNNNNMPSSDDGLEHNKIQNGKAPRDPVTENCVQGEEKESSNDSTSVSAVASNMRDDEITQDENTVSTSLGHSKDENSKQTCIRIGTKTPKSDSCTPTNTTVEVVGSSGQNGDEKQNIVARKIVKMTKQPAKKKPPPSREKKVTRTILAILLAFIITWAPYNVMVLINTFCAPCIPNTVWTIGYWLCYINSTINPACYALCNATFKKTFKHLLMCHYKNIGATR
Further: assay procedure not described here.

OC(CCCN1CCCCC1)(c1ccccc1)c1ccccc1 [DIPHENIDOL]
AC50: 380 nM
